Experiments:
[1] = tested on: anti-BCMA CAR T cells with OPM-2; experiment: Cytokine production of anti-BCMA CAR T cells co-cultured with OPM-2 with or without lenalidomide; assay type: cell-based, human
anti-BCMA CAR+ T cells [2] = experiment: Serial restimulation of anti-BCMA CAR+ T cells with irradiated MM1.S cells: expansion, cytokines, CD25; assay type: cell-based, human
Procedure: Anti-BCMA CAR+ T cells generated as described above were plated in triplicate at 1×10^5 cells/well on 96-well plates.
Every 3-4 days (start of each new round), CAR T cells were counted. […] 8 rounds of stimulation were carried out during a 31 day culture period. For some rounds, at re-plating, cells were assessed for phenotypic markers via flow cytometry.
Culture conditions were reset every 3-4 days. Replating was maintained for 28 days or until the cell count was <50,000 cells. Experiments were performed in triplicate in 3 donors.

RPMI-8226 = conditions: read-out: sensitive to lenalidomide; cited from earlier work
anti-BCMA CAR T cells = experiment: Cytokines of anti-BCMA CAR T cells stimulated with BCMA-conjugated beads (supernatant, intracellular); assay type: cell-based, human; conditions: 24 hours
Procedure: Cryofrozen anti-BCMA CAR T cells, produced substantially as described in Example 2 and formulated at a 1:1 ratio of CD4+ and CD8+ T cells, were thawed.
Twenty four hours after addition of BCMA-conjugated beads, the presence of TNF-α, IFNγ, and IL-2 in culture supernatants was assessed.
In a further exemplary study, two different anti-BCMA CAR T cell compositions were generated from different donors, each containing T cells expressing the same anti-BCMA CAR. The cells were thawed and incubated with beads (diameter about 4.5 μm) from a 5 μg/mL or 200 μg/mL BCMA-conjugated bead composition generated as described in Example 1. […] Twenty four hours after addition of BCMA-conjugated beads, IL-2 production by the anti-BCMA CAR+ T cells was assessed in culture supernatants.
The cells were gated on transduced, live CD3+ cells, and assessed by flow cytometry for intracellular cytokine accumulation of IFNγ and TNFα in CD4+ and CD8+ cells.

OPM-2-luciferase tumor = experiment: OPM-2 orthotopic xenograft mouse model, Study 2 (concurrent or delayed lenalidomide); assay type: in vivo
Procedure: In a further study, NOD/Scid/gc^−/− (NSG) mice were injected (i.v.) with OPM-2-luciferase cells as described in Study 1 above and allowed to engraft for 14 days prior to CAR-T (or mock) cell; infusion (i.v.).
At 14 days after tumor cell injection (day 0), a subtherapeutic dose of CAR+ T cells (1×10^6 CAR-T cells (generated from two different donors)) or mock control cells was injected intravenously. Data are presented as mean±SEM. For in vivo survival, a Gehan-Breslow-Wilcoxon test was used to compare groups.
FIG. 10E depicts the results of tumor burden assessment through day 60, as analyzed by the bioluminescence […]. […] P values were obtained by likelihood ratio tests comparing the full model with the effect of interest against the model without the effect of interest.
Blood from the treated mice was collected for CAR-T pharmacokinetic analysis, and cells were stained with antibodies to exclude mouse-specific cells (H2-kd, TER119, and muCD45) and analyzed by flow cytometry. Cells were gated on CD45+CD3+CAR+ and the cells per microliter of blood was determined. For pharmacokinetic measurements, each time point was analyzed by one-way ANOVA and Tukey post-hoc test. FIGS. 10G and 10H show the flow cytometric analysis of mock control cells and CAR-T cells in the blood of the mice at days 8, 14, 22, and 28 following injection of the CAR-T cells from two donors.

anti-BCMA CAR+ T cells [3] = experiment: T cell markers and proliferation of anti-BCMA CAR+ T cells stimulated with BCMA-conjugated beads; assay type: cell-based, human
Procedure: B cell maturation antigen (BCMA) was conjugated to beads by covalently coupling a BCMA-Fc fusion polypeptide, containing soluble human BCMA fused at its C-terminus to an Fc region of IgG, to the surface of commercially available tosyl-activated magnetic beads (ThermoFisher, Waltham Mass.). The beads are superparamagnetic, non-porous, monodisperse, tosylactivated beads that covalently bind primary amino and sulfhydryl groups. Conjugation was performed using beads having a diameter of approximately 2.8 μm (designated M-280) or 4.5 μm (designated M-450).
Various concentrations of the BCMA-Fc fusion protein ranging from 5 μg to 200 μg were added to approximately 1 mL of tocylactivated beads (e.g. containing about 4×10^9 tocylactivated beads having a diameter of 2.8 μm or about 4×10^8 tocylactivated beads having a diameter of 4.5 μm). Covalent coupling was performed by overnight incubation at 37° C. in phosphate buffered solution (PBS) containing 0.1% human serum albumin (HSA). Beads were washed and resuspended in 1 mL PBS with 0.1% HSA. After conjugation, the bead concentration was determined using a Cellometer. In the examples below, the BCMA-conjugated beads used in various studies are referred to with reference either to the amount of BCMA-Fc antigen added per mL or the antigen concentration (μg/mL) during the conjugation, e.g. 5 μg or 5 μg/mL; 50 μg or 50 μg/mL; 200 μg or 200 μg/mL and so on.
Approximately 1.5×10^6 CAR+ T cells were added to wells of a 12-well plate and were incubated with beads from a 200 μg/ml BCMA-conjugated bead composition at a ratio of CAR+ T cell to BCMA-conjugated bead of 1:0.3, 1:1 or 1:3 (approximately 0.5×10^6, 1.5. 10^6, and 4.5×10^6 beads per well, respectively). As controls, 5 μg/mL anti-CD3 antibody was coated to wells (sub-optimal concentration for stimulation) or cells were seeded in the absence of any agent (no stimulation control). […]
In a further experiment, anti-BCMA CAR-T cell compositions produced substantially as described in Example 1 were plated in 96-well plates at a density of 5×10^5 cells per well. […]

[4] = 0.1 μM lenalidomide, repeated stimulation

For `Nc1cccc2c1CN(C1CCC(=O)NC1=O)C2=O` (centres unmarked) [lenalidomide, 3-(4-amino-1-oxo-1,3-dihydro-2H-isoindol-2-yl)piperidine-2,6-dione], the “cytokine production and/or accumulation (IFNγ, IL-2, TNF-α)” value ([1]; 0.01-10 μM lenalidomide, E:T 1:1, 24 hours, four donors) was “enhance cytokine production and/or accumulation by antigen-stimulated anti-BCMA CAR+ T cells in a dose-dependent manner”, the “IFN-γ, IL-2 and TNF-α production” value ([1]; all CAR T donors, concentration-dependent) was “significantly increased IFN-γ, IL-2, and TNF-α production” and the “cytokine production (IFNγ, IL-2)” value ([1]; healthy donor and multiple myeloma patient, E:T 1:1, 24 hours) was “increased by lenalidomide in a concentration-dependent manner”. The projected cell counts (anti-BCMA CAR+ T cells [2]; 0.1 μM lenalidomide, 3 donors, over 28 days) was “increased projected cell counts”, the “CAR T CD25 expression (MFI)” value (anti-BCMA CAR+ T cells [2]; [4]) was “significant increase in CAR T CD25 expression” and the “IL-2, IFN-γ, and TNF-α production in the media” value (anti-BCMA CAR+ T cells [2]; [4]) was “significant increase”. For the same compound, the CAR-T expansion (anti-BCMA CAR+ T cells [2]; 0.1 μM lenalidomide, six donors) was “an increase or no change in CAR-T expansion”, the “expansion of anti-BCMA CAR T cells” value (anti-BCMA CAR+ T cells [2]; 0.01-10 μM lenalidomide, by day 14, vs no lenalidomide) was “increased expansion of anti-BCMA CAR T cells” and the “expansion of cells expressing two different human anti-BCMA CARs” value (anti-BCMA CAR+ T cells [2]; beginning between day 21 and day 28) was “increase expansion in both cell populations”. For the same compound, the IC50 (RPMI-8226) was 6.43 µM, the “intracellular cytokine levels of IFNγ and TNFα” value (anti-BCMA CAR T cells; 0.1 μM or 1 μM lenalidomide, 5, 50 or 200 μg/mL beads) was “increased by lenalidomide” and the IL-2 production (anti-BCMA CAR T cells; 1 μM or 5 μM lenalidomide, 5 or 200 μg/mL BCMA beads, two donors) was “increased cytokine production”. For the same compound, the “BCMA-induced CAR+ T cell cytokine production (IFNγ, IL-2, TNF-α)” value (anti-BCMA CAR T cells; 5 μM lenalidomide, 5 or 50 μg/mL BCMA beads) was “increased BCMA-induced CAR+ T cell cytokine production”, the “tumor growth and tumor burden” value (OPM-2-luciferase tumor; added to subtherapeutic CAR+ T cells from both donors, through day 60) was “slower tumor growth and reduced tumor burden” and the “CAR T counts in the peripheral blood” value (OPM-2-luciferase tumor; concurrent lenalidomide, after 7 days, not at later time points) was “increased CAR T counts in the peripheral blood”. For the same compound, the tumor burden (OPM-2-luciferase tumor; concurrent lenalidomide, donor 1, vs vehicle with anti-BCMA CAR T) was “significant decrease in tumor burden”, the survival (OPM-2-luciferase tumor; concurrent lenalidomide, donor 1 and donor 2) was “increased survival” and the “expression level of Ikaros” value (anti-BCMA CAR+ T cells [3]; 0.5 μM or 5 μM lenalidomide, 18 hours, all conditions) was “decreased”. The “proliferative capacity of T cells (CTV)” value (anti-BCMA CAR+ T cells [3]; 5 μM lenalidomide, 200 μg BCMA beads, 1:1, three days) was “increased the proliferative capacity of T cells” and the “surface expression of CD25 in CD4+ and CD8+ T cells” value (anti-BCMA CAR+ T cells [3]; 5 μM lenalidomide, BCMA-conjugated beads or anti-CD3) was “further increased the extent of surface expression of CD25”.
